This is an account of results in patent US6903095B2, “Phthalimido derivatives and a process for their preparation” (Hoffmann-La Roche Inc., priority 2002, dated 2005).

Where a name gives a salt, the structure may show the parent alone.

For experiment [1], the target named is T1, human MAO-B (Homo sapiens, UniProt P27338).
T1 construct: expressed in transfected cells; host or cells: EBNA cells (transient transfection; cell membranes used)
T1 sequence (P27338 1-520): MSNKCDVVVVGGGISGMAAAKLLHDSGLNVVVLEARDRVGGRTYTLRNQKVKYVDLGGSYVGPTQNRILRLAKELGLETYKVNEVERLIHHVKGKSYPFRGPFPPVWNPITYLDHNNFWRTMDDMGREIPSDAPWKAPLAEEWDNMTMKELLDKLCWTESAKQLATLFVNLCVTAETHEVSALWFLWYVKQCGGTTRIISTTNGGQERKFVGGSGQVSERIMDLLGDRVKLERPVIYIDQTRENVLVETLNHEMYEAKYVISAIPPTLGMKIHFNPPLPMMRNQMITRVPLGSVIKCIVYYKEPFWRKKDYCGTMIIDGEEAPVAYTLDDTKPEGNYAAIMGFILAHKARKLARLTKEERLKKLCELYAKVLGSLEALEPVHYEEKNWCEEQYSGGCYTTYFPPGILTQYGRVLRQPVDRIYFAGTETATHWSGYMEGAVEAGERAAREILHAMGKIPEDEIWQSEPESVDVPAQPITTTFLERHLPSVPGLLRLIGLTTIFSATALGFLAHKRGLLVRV
The experiment is described as follows: MAO-B enzymatic activity, spectrophotometric assay (Amplex Red, tyramine substrate) on membranes of transfected EBNA cells. The format is biochemical. As to conditions: 30 min preincubation at 37° C., pH 7.4, tyramine substrate. On the procedure: (§1) The cDNA's encoding human MAO-A and MAO-B were transiently transfected into EBNA cells using the procedure described by E.-J. Schlaeger and K. Christensen (Transient Gene Expression in Mammalian Cells Grown in Serum-free Suspension Culture; Cytotechnology, 15: 1-13, 1998). After transfection, cells were homogenized by means of a Polytron homogenizer in 20 mM Tris HCl buffer, pH 8.0, containing 0.5 mM EGTA and 0.5 mM phenylmethanesulfonyl fluoride. Cell membranes were obtained by centrifugation at 45,000×g and, after two rinsing step with 20 mM Tris HCl buffer, pH 8.0, containing 0.5 mM EGTA, membranes were eventually re-suspended in the above buffer and aliquots stored at −80° C. until use.
(§2) MAO-A and MAO-B enzymatic activity was assayed in 96-well-plates using a spectrophotometric assay adapted from the method described by M. Zhou and N. Panchuk-Voloshina (A One-Step Fluorometric Method for the Continuous Measurement of Monoamine Oxidase Activity, Analytical Biochemistry, 253: 169-174, 1997). Briefly, membrane aliquots were incubated in 0.1 M potassium phosphate buffer, pH 7.4, for 30 min at 37° C. with or without various concentrations of the compounds. After this period, the enzymatic reaction was started by the addition of the MAO substrate tyramine together with 1 U/ml horse-radish peroxidase (Roche Biochemicals) and 80 μM N-acetyl-3,7,-dihydroxyphenoxazine (Amplex Red, Molecular Probes). The samples were further incubated for 30 min at 37° C. in a final volume of 200 μl and absorbance was then determined at a wavelength of 570 nm using a SpectraMax plate reader (Molecular Devices). Background (non-specific) absorbance was determined in the presence of 10 μM clorgyline for MAO-A or 10 μM L-deprenyl for MAO-B.
(§3) IC50 values were determined from inhibition curves obtained using nine inhibitor concentrations in duplicate, by fitting data to a four parameter logistic equation using a computer program.

Experiment [2] has as its target T2, human MAO-A (Homo sapiens, UniProt P21397).
T2 construct: expressed in transfected cells; host or cells: EBNA cells (transient transfection; cell membranes used)
T2 sequence (P21397 1-527): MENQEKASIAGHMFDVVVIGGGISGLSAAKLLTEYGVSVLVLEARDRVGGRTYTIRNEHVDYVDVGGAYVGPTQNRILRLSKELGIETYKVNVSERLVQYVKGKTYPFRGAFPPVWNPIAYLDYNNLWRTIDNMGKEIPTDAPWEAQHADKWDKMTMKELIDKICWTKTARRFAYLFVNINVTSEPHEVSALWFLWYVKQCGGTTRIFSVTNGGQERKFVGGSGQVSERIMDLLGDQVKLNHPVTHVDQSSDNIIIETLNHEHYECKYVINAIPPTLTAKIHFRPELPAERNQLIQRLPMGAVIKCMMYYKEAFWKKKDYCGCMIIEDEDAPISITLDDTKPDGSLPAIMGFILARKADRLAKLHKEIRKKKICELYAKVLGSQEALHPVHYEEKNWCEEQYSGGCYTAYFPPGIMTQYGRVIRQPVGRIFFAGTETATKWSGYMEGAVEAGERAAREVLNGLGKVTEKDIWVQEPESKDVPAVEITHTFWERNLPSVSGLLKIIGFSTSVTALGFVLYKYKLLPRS
The experiment is described as follows: MAO-A enzymatic activity, spectrophotometric assay (Amplex Red, tyramine substrate) on membranes of transfected EBNA cells. Type of experiment: biochemical. As to conditions: 30 min preincubation at 37° C., pH 7.4, tyramine substrate. On the procedure: as §1, §2, §3

For the compound `C[C@@H](C(N)=O)N1C(=O)c2ccc(OCc3ccc(F)cc3)cc2C1=O` [Example 2, (S)-2-[5-(4-Fluoro-benzyloxy)-1,3-dioxo-1,3-dihydro-isoindol-2-yl]-propionamide], the IC50 (as a rule, the concentration that inhibits the measured activity by half) in experiment [1] was found to be 8 nM; in experiment [2], 776 nM.

`N#CCN1C(=O)c2ccc(OCc3ccc(F)cc3)cc2C1=O` [Example 7]: the figures for the half-inhibitory concentration (IC50) in experiment [1] and in experiment [2] were 34 nM and more than 10000 nM, respectively.

Consider `NCCN1C(=O)c2ccc(OCc3ccc(F)cc3)cc2C1=O` [Example 9, 2-(2-Amino-ethyl)-5-(4-fluoro-benzyloxy)-isoindole-1,3-dione 1:1 hydrochloride], for which the IC50 is 32 nM in experiment [1] and more than 10000 nM in experiment [2].

In the case of `O=C1c2ccc(OCc3ccc(F)cc3)cc2C(=O)N1CCO` [Example 12, 5-(4-Fluoro-benzyloxy)-2-(2-hydroxy-ethyl)-isoindole-1,3-dione], the results for the IC50 in experiment [1] and in experiment [2] were 4 nM and 369 nM, respectively.

With `NC(=O)[C@H](CO)N1C(=O)c2ccc(OCc3ccc(F)cc3)cc2C1=O` [Example 14, (S)-2-[5-(4-Fluoro-benzyloxy)-1,3-dioxo-1,3-dihydro-isoindol-2-yl]-3-hydroxy-propionamide], the IC50 in experiment [1] is 17 nM; in experiment [2] it was more than 10000 nM.

`CCSCCN1C(=O)c2ccc(OCc3ccc(F)cc3)cc2C1=O` [Example 19, 2-(2-Ethylsulfanyl-ethyl)-5-(4-fluoro-benzyloxy)-isoindole-1,3-dione]: the IC50 was 11 nM in experiment [1] and more than 10000 nM in experiment [2].

As for `NC(=O)CC(O)CN1C(=O)c2ccc(OCc3ccc(F)cc3)cc2C1=O` (stereo not drawn) [Example 22, 4-[5-(4-Fluoro-benzyloxy)-1,3-dioxo-1,3-dihydro-isoindol-2-yl]-3-hydroxy-butyramide], the IC50 in experiment [1] is 97 nM; in experiment [2] it was more than 10000 nM.

Regarding `COC[C@H](C)N1C(=O)c2ccc(OCc3ccc(Br)cc3)cc2C1=O` [Example 28, (S)-5-(4-Bromo-benzyloxy)-2-(2-methoxy-1-methyl-ethyl)-isoindole-1,3-dione], the values for the IC50 in experiment [1] and in experiment [2] were 34 nM and more than 10000 nM, respectively.

As for `COC[C@H](C)N1C(=O)c2ccc(OCc3cccc(OC)c3)cc2C1=O` [Example 29, (S)-5-(3-Methoxy-benzyloxy)-2-(2-methoxy-1-methyl-ethyl)-isoindole-1,3-dione], the values for the IC50 in experiment [1] and in experiment [2] were 69 nM and more than 10000 nM, respectively.

Take `COC[C@H](C)N1C(=O)c2ccc(OCc3ccc(C#N)cc3)cc2C1=O` [Example 30, (S)-4-[2-(2-Methoxy-1-methyl-ethyl)-1,3-dioxo-2,3-dihydro-1H-isoindol-5-yloxymethyl]-bezonitrile]: the values for the 50% inhibitory concentration (IC50) in experiment [1] and in experiment [2] were 129 nM and 6200 nM, respectively.

As to `COC[C@H](C)N1C(=O)c2ccc(OCc3ccc(F)c(F)c3)cc2C1=O` [Example 31, (S)-5-(3,4-Difluoro-benzyloxy)-2-(2-methoxy-1-methyl-ethyl)-isoindole-1,3-dione], the IC50 came out at 32 nM in experiment [1] and 3500 nM in experiment [2].

On to `COC[C@H](C)N1C(=O)c2ccc(OCc3ccc(OC(F)(F)F)cc3)cc2C1=O` [Example 32, (S)-2-(2-Methoxy-1-methyl-ethyl)-5-(4-trifluoromethoxy-benzyloxy)-isoindole-1,3-dione], for which the IC50 in experiment [1] is 47 nM; in experiment [2], more than 10000 nM.

On to `O=C1c2ccc(OCc3ccc(F)cc3)cc2C(=O)N1Cc1cccs1` [Example 34, 5-(4-Fluoro-benzyloxy)-2-thiophen-2-ylmethyl-isoindole-1,3-dione], for which the IC50 in experiment [1] was 81 nM; in experiment [2], more than 10000 nM.

For `CC[S+]([O-])CCN1C(=O)c2ccc(OCc3ccc(F)cc3)cc2C1=O` (stereo not drawn) [Example 38, 2-(2-Ethanesulfinyl-ethyl)-5-(4-fluoro-benzyloxy)-isoindole-1,3-dione], the IC50 is 115 nM in experiment [1] and more than 10000 nM in experiment [2].

With `COC(CN1C(=O)c2ccc(OCc3ccc(F)cc3)cc2C1=O)C(F)(F)F` (stereo not drawn) [Example 43], the half-maximal inhibitory concentration (IC50) in experiment [1] was 45 nM; in experiment [2], more than 10000 nM.

Regarding `C[C@@H](C(N)=O)N1C(=O)c2ccc(OCc3cccc(F)c3)cc2C1=O` [Example 44, (S)-2-[5-(3-Fluoro-benzyloxy)-1,3-dioxo-1,3-dihydro-isoindol-2-yl]-propionamide], the IC50 came out at 7 nM in experiment [1] and 5760 nM in experiment [2].

For the compound `NCCN1C(=O)c2ccc(OCc3cccc(F)c3)cc2C1=O` [Example 50, 2-(2-Amino-ethyl)-5-(3-fluoro-benzyloxy)-isoindole-1,3-dione 1:1 hydrochloride], the IC50 in experiment [1] was 39 nM; in experiment [2], more than 10000 nM.

Consider `NC(=O)[C@H](CO)N1C(=O)c2ccc(OCc3cccc(F)c3)cc2C1=O` [Example 52, (S)-2-[5-(3-Fluoro-benzyloxy)-1,3-dioxo-1,3-dihydro-isoindol-2-yl]-3-hydroxy-propionamide], for which the results for the IC50 in experiment [1] and in experiment [2] were 20 nM and more than 10000 nM, respectively.
